Patent US20090182033A1, “Cyclic Amine Derivatives and Their Uses” (ARGENTA DISCOVERY LTD., priority 2005, published 2009)
pKi: −log10 of the molar value.

Target: T1, M3 muscarinic receptor (Homo sapiens, UniProt P20309)
T1 construct: purchased
Assay: Muscarinic receptor radioligand binding assay ([3H]-NMS)
Conditions: cell membranes expressing the human muscarinic receptors, 3 hours incubation, read-out: binding affinity Ki
Procedure: The inhibitory effects of compounds of the present invention at the M3 muscarinic receptor were determined by the following binding assays:
Radioligand binding studies utilising [^3H]-N-methyl scopolamine ([^3H]-NMS) and commercially available cell membranes expressing the human muscarinic receptors (M2 and M3) were used to assess the affinity of muscarinic antagonists for M2 and M3 receptors. Membranes in TRIS buffer were incubated in 96-well plates with [^3H]-NMS and M3 antagonist at various concentrations for 3 hours. Membranes and bound radioligand were then harvested by filtration and allowed to dry overnight. Scintillation fluid was then added and the bound radioligand counted using a Can berra Packard Topcount scintillation counter

T1 sequence (P20309 whole entry): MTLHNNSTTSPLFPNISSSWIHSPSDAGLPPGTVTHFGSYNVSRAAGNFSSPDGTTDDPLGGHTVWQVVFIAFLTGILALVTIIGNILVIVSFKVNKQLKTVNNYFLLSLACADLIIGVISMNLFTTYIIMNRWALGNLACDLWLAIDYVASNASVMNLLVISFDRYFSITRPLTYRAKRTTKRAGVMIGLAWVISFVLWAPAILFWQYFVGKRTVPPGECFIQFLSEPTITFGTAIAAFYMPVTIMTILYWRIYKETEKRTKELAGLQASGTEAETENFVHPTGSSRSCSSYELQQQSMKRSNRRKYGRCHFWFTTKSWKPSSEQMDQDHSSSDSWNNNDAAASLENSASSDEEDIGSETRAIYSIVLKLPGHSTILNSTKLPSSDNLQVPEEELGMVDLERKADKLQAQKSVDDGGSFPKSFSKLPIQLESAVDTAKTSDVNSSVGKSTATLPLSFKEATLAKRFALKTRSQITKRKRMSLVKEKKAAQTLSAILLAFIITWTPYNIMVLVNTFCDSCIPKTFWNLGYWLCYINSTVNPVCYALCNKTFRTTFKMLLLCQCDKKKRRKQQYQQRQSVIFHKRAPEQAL

pKi: > 7.00
SMILES: C[N+](C)(CCCc1ccccc1)C1CC2CCC1C2OCc1ccccc1 [Example 6, Anti (1S, 2S) (7-benzyloxybi-cyclo[2.2.1]hept-2-yl)-dimethyl-(3-phenyl-propyl)-ammonium bromide]
